The source of these data is ChEMBL document CHEMBL1201862, “PubChem BioAssay data set” (2004).

Calls of active or inactive are those of the source.

Assay [1] in a line: LGR2 antagonists, dose response, cell-based, HEK293, CRE-luciferase reporter, cherry pick, set 2 (AID 743343).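 Note: transfected cells were stimulated with diluted bursicon conditioned medium after compound addition.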 It is filed as functional. (In general: In a reporter assay the amount or activity of a reporter protein is the signal.)
A short description of assay [2]: HepG2 cell cytotoxicity, dose response, cytotoxicity control, plate reader, cherry-pick, antagonist series (AID 743416). The format is functional, cell-based.
The nature of assay [3]: Luminescence-based counterscreen assay for KLF5 inhibitors: dose response cell-based high throughput screening assay to identify cytotoxic compounds using the IEC-6 intestinal epithelial cell line. [Related pubchem assays: 1700 (Primary screen.), 1834 (Confirmation screen.), 1858 (Summary AID.), 1905 (Counterscreen.)]. It is filed as functional. (A counterscreen serves to expose hits that act by an unwanted route or on another target.)

A short description of assay [4]: A549 cell cytotoxicity, dose response, cytotoxicity control, plate reader, cherry-pick, antagonist series (AID 743412). It is filed as functional, cell-based.
Assay [5] can be described thus: MC4R antagonists, dose response, counter-screen for LGR2 antagonist project, cell-based, plate reader, cherry pick (AID 743444).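 Note: transfected HEK 293 cells stimulated with alpha-MSH peptide; potency of inhibitors of the alpha-MSH evoked signal.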 It is filed as functional.
Assay [6] concerns the target Heat shock 70 kDa protein 1A (Homo sapiens, UniProt P0DMV8). As to the kind of experiment: Hsp70 inhibitors, SAR follow-up, biochemical, fluorescence polarization (AID 1072).
Assay [7] concerns the target T1, Dual specificity protein phosphatase 6 (Rattus norvegicus, UniProt Q64346).
T1 sequence (Q64346 whole entry): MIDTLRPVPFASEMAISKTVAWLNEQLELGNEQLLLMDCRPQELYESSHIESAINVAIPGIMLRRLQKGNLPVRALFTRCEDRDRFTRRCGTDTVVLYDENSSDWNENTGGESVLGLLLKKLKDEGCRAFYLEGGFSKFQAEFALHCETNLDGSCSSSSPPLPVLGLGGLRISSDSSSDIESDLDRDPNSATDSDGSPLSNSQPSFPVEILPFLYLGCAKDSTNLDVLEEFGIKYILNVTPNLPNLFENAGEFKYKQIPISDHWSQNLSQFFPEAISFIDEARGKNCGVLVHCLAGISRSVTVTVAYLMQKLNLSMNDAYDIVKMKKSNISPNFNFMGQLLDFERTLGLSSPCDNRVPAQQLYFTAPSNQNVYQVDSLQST

For assay [8], the target named is T2, Tyrosine-protein phosphatase non-receptor type 7 (Homo sapiens, UniProt P35236).
T2 sequence (P35236 whole entry): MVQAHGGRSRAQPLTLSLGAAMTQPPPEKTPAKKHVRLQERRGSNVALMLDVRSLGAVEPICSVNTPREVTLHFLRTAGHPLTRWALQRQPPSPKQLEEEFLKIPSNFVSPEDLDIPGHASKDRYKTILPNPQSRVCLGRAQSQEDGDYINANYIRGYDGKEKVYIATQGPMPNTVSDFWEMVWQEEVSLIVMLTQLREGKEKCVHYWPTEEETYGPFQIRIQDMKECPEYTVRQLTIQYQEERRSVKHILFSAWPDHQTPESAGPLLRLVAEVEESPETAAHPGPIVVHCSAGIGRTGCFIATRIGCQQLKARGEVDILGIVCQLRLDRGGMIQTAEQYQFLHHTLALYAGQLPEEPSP
It is filed as functional.

Assay [9] has as its target T1, Dual specificity protein phosphatase 6. It is filed as functional.
Assay [10] addresses Heat shock cognate 71 kDa protein (Homo sapiens, UniProt P11142). As to the kind of experiment: In Vitro Hsc70 Dose Response Fluorescence Polarization Assay. [Related pubchem assays: 1072 ]. (In general: Polarisation of emitted light reports the rotation of a fluorescent probe.)
The target in assay [11] is Glyceraldehyde-3-phosphate dehydrogenase (Homo sapiens, UniProt P04406).
Chain of Glyceraldehyde-3-phosphate dehydrogenase (P04406 whole entry): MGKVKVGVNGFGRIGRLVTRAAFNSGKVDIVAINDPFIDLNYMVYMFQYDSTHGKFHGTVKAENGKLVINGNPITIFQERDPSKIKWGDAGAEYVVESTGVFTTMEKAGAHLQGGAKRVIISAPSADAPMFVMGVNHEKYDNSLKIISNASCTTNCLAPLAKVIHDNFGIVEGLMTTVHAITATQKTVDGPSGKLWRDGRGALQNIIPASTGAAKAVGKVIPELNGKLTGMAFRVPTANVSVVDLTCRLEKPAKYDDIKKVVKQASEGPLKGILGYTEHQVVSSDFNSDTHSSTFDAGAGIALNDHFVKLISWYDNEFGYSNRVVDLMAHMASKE
The target of assay [12] is Transitional endoplasmic reticulum ATPase (Homo sapiens, UniProt P55072). As to the kind of experiment: p97 ATPase inhibitors, dose response, biochemical (AID 1534).
Chain of Transitional endoplasmic reticulum ATPase (Homo sapiens, UniProt P55072) (P55072 whole entry): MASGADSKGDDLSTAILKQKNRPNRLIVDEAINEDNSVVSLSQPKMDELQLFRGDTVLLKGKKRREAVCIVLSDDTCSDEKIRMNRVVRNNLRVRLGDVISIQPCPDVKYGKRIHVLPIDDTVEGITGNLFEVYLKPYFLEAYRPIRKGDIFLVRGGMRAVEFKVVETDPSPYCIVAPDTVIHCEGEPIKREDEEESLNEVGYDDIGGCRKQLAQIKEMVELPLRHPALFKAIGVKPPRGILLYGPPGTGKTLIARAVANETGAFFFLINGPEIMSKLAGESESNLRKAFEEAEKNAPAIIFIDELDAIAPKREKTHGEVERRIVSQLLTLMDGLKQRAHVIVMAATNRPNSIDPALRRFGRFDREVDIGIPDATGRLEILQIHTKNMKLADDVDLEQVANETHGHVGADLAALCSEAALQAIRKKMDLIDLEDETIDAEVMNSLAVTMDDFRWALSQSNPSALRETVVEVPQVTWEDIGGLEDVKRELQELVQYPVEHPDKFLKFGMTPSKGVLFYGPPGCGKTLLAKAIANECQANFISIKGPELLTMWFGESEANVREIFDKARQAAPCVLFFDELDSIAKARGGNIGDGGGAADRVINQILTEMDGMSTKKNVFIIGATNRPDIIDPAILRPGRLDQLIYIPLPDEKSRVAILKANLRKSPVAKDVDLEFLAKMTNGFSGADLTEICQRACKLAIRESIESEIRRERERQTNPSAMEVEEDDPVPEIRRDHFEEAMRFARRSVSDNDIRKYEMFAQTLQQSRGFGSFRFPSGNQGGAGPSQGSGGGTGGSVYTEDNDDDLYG
Assay [13] concerns the target Transitional endoplasmic reticulum ATPase (Homo sapiens, UniProt P55072, C522A). As to the kind of experiment: C522A mutant p97 ATPase inhibitors, dose response, counter-screen for p97 inhibitor project, biochemical, luminescence (AID 1544).
A further assay deals with NS3 (Hepatitis C virus, UniProt A3EZJ3). As to the kind of experiment: PubChem AID 2173. Details: species or system Hepacivirus hominis.
Chain of NS3 (A3EZJ3 whole entry): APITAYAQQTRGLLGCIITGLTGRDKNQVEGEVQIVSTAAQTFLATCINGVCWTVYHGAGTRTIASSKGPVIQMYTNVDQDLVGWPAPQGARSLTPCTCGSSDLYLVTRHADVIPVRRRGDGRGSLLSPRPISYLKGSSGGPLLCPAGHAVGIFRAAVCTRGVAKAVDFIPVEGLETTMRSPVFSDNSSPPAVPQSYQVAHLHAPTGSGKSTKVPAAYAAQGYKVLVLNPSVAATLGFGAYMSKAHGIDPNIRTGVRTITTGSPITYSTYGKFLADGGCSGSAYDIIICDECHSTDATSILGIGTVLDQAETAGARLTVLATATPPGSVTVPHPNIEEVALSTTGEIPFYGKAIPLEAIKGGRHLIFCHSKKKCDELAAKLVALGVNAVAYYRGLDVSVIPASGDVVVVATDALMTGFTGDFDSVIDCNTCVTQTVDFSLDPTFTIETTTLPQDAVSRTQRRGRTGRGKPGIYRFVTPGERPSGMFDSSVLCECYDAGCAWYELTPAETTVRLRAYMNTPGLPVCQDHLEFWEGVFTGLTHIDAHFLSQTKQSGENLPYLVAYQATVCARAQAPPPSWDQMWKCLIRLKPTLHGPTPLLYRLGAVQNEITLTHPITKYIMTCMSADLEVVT
The next assay concerns the target Large T antigen (Simian virus 40, UniProt P03070). It is filed as functional, Betapolyomavirus macacae.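 Note: Confirmatory-stage PubChem screen for compounds that inhibit SV40 T antigen.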
In assay [14] the target is Mothers against decapentaplegic homolog 3 (Homo sapiens, UniProt P84022). As to the kind of experiment: Smad3 binding inhibitors, lysate ELISA, dose response, cell lysate, secondary confirmation, chemiluminescent ELISA, HEK293 lysate (AID 1058). The format is functional.
Chain of Mothers against decapentaplegic homolog 3 (P84022 whole entry): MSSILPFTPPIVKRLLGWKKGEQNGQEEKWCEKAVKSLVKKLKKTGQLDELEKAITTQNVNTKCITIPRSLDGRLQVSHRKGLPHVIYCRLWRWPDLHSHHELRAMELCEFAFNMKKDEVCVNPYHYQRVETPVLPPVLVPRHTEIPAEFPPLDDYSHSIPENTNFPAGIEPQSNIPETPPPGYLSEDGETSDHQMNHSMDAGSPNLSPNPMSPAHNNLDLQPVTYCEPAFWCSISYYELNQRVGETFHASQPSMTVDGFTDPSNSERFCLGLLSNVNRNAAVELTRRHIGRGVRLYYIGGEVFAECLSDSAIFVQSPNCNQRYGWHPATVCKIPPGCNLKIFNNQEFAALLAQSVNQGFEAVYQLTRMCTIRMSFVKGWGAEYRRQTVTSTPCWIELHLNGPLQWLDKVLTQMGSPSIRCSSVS

Chain of Transitional endoplasmic reticulum ATPase (Homo sapiens, UniProt P55072, C522A) (P55072 2-806 C522A limits assumed): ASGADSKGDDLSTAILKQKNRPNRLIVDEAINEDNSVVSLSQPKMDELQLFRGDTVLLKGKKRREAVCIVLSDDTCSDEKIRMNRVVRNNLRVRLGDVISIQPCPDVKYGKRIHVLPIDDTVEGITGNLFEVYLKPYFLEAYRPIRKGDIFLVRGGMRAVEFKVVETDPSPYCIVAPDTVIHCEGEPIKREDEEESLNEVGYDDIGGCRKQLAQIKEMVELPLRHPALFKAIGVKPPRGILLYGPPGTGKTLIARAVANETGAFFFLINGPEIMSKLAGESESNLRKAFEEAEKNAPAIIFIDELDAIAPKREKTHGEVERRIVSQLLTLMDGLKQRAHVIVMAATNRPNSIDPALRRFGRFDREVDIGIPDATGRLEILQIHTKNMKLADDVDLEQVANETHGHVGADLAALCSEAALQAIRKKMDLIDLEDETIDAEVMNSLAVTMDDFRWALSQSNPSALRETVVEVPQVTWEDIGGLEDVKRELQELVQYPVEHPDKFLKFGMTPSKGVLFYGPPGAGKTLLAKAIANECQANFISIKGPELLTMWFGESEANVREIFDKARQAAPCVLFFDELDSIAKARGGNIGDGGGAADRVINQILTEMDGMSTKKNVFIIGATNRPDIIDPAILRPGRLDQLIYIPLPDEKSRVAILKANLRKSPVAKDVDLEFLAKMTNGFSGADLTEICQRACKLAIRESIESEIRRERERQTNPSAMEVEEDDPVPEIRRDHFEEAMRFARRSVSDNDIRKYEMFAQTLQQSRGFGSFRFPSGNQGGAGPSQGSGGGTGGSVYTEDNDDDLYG
Chain of Heat shock cognate 71 kDa protein (P11142 whole entry): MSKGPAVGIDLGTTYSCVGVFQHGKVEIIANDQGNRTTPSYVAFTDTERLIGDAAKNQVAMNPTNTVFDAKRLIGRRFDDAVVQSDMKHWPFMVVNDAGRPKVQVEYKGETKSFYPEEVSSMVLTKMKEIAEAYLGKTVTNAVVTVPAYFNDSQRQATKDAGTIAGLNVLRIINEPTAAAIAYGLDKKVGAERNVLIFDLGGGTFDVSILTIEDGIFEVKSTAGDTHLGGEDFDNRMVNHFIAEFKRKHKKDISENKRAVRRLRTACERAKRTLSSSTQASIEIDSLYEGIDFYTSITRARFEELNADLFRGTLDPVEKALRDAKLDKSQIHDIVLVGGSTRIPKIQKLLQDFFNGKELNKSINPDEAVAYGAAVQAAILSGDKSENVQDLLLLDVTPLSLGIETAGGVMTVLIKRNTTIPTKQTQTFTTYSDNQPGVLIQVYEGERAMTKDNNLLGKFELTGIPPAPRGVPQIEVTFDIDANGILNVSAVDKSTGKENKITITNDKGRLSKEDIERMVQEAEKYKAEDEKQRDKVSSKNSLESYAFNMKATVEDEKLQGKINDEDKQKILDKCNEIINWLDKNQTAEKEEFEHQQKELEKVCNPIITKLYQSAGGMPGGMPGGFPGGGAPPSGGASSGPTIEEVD
Chain of Large T antigen (P03070 whole entry): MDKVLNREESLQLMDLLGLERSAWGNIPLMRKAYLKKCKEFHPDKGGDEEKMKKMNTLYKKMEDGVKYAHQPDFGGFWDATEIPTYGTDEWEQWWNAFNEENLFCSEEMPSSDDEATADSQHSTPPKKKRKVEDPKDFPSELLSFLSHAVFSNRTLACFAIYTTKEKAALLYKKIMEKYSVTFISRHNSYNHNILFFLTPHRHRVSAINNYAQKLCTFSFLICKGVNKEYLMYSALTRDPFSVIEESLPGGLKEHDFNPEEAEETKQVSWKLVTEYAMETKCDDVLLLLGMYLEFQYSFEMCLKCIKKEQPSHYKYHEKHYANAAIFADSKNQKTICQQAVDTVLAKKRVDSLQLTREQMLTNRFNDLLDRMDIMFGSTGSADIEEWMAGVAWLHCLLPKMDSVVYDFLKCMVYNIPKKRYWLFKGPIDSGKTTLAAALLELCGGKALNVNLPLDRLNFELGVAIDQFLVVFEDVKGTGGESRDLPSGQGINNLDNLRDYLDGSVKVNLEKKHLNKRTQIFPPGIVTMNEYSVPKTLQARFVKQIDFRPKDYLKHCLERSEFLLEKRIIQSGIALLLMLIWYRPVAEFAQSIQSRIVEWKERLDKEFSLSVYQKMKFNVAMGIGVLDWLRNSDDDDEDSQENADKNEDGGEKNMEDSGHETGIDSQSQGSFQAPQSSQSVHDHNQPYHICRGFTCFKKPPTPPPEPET
Chain of Heat shock 70 kDa protein 1A (P0DMV8 whole entry): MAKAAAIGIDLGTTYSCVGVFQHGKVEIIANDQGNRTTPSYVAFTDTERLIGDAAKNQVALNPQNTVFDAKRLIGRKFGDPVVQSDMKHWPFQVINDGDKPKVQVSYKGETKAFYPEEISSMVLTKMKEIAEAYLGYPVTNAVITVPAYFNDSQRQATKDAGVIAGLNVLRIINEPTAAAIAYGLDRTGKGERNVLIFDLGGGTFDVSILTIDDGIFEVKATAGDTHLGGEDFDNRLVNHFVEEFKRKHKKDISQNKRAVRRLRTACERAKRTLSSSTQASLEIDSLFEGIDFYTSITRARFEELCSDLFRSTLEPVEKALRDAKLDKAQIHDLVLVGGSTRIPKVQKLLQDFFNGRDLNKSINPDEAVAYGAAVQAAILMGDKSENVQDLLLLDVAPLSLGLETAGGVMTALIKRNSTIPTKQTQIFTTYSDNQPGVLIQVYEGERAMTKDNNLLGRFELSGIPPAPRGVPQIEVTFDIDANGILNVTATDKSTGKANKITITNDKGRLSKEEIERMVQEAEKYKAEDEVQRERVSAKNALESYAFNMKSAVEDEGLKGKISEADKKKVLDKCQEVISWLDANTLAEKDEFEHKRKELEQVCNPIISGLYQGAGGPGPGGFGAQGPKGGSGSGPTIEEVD

For the compound `COc1ccc(Cl)cc1C(=O)Nc1nc2ccccc2[nH]1`, the AC50 – broadly, the midpoint of the concentration-response curve, whichever way the signal moves – is 2.05 µM (active) in assay [1], > 52 µM (inactive) in assay [2], > 52 µM (inactive) in [4] and 2.46 µM (active) in assay [5]. Besides, the IC50 (in general, the midpoint of a concentration-inhibition curve) in [3] was > 39.8 µM (not active).

With `O=C(O)C1Nc2cc(Cl)cc(Cl)c2C2C=CCC12` (stereo unspecified), the IC50 in [6] is 18.1 µM (active); in [7], 61.6 µM (active); in [8] it was > 100 µM (not active); in [9] it was > 100 µM (inactive); in [10] it was 53 µM (active); in [11], 62.7 µM (active).

As to `COc1ccc2ccccc2c1/C=N/NC(=O)c1sc(N)c(C#N)c1C`, the IC50 in assay [12] was 2.58 µM (active); in assay [13], > 50 µM (not active).

`O=C1NC(=O)N(c2ccccc2)C(=O)/C1=C\c1ccc([N+](=O)[O-])s1`: the IC50 on NS3 is 15.7 µM (not active); at Large T antigen, 42.1 µM (active).

`COc1cccc(C(c2cc3c(cc2O)OCO3)N2CCOCC2)c1O` (stereo unspecified): the IC50 in assay [14] is reported as > 40 µM (not active).
